Several values for one entry are separate records, joined by “and”; a condition that tells them apart may be missing. Identical values can stand only once.
Tests used:
[1] = test system: P. aeruginosa PT629 (Mex AB overproducer); assay: Antibiotic susceptibility testing (broth micro-dilution MIC), strain PT629; assay type: cell-based, Pseudomonas aeruginosa; details: Pseudomonas aeruginosa, read-out: Minimal Inhibitory Concentration
Procedure: (§1) Experiments were performed on the BAC-SCREEN platform of the UMR-MD1, with a Freedom EVO 150 liquid handling system (Tecan, Lyon, France).
(§2) We concluded that compound 3 was the best compound and suitable for a more detailed study. The same experiment was performed using chloramphenicol (4 mg/L) in combination with 3 (10 μM final concentration). Amongst the 20 clinical isolates, the growth of 15 (75%) was impaired, while 5 (25%) were resistant (data not shown). These experiments were performed to study the effect of our compounds on the natural resistance of P. aeruginosa. In addition, we were wondering if compound 3 could also increase susceptibility to other antibiotic families including ß-Lactams, fluoroquinolones and aminoglycosides, that are representative of the main classes of anti-pseudomonal agents. Experiments were performed with the ß-lactams ceftazidime and ticarcillin and ciprofloxacin and amikacin. […] . […] To better characterize compound 3, we first searched for the minimum concentration of compound that allowed killing of bacteria by doxycycline, and PAßN was used as the reference molecule.

[2] = test system: P. aeruginosa PA0-7H (Mex EF overproducer); assay: Antibiotic susceptibility testing (broth micro-dilution MIC), strain PA0-7H; assay type: cell-based, Pseudomonas aeruginosa; details: Pseudomonas aeruginosa, read-out: Minimal Inhibitory Concentration
Procedure: as §1, §2

[3] = test system: P. aeruginosa PA01 reference strain; assay: High-content screening in the presence of doxycycline; details: compound 10 μM, sub-inhibitory doxycycline
Procedure: The screening was carried out in 96-well microtiter plates using MHBII, in a final volume of 200 μL. […] The bacterial inoculum of 5×10^5 CFU/mL was prepared from an overnight culture. In addition to the polyamino-isoprenic compounds, each plate contained PAßN, CCCP, CTAB, polymyxin-B and benzalkonium chloride as control molecules. Plates were incubated at 37°C under aerobic conditions for 18 hours. Plates were read at 600 nm on an Infinite M200 Pro plate reader (Tecan).
A series of 60 compounds, which were described [18], were tested at a concentration of 10 μM in combination with a sub-inhibitory concentration of doxycycline against the reference strain of P. aeruginosa PA01. In parallel, we evaluated the intrinsic antimicrobial activity of these compounds alone to allow the selection of only doxycycline adjuvants.

[4] = test system: twenty clinical isolates of P. aeruginosa; assay: Combined antibiotic / polyamino-isoprenic derivative on MH agar plates, clinical isolates; assay type: cell-based, Pseudomonas aeruginosa; details: doxycycline 2 mg/L + compound 10 μM; 20 clinical isolates
Procedure: MH agar plates were prepared, containing 2 mg/L doxycycline and 2 mg/L doxycycline in combination with compounds at a concentration of 10 μM. Bacteria, 5 μL of a suspension of each clinical isolate adjusted to 5 x 10^5 colony-forming units per ml were spotted on each plate and growth was monitored after a 18 h period of incubation at 37°C.
PA01 is a well-studied reference strain of P. aeruginosa, however to extend our study we considered strains recently isolated from hospitalized patients. Thus, we decided to test this combination of doxycycline (2mg/L) with polyamino-isoprenic compounds (10 μM) on twenty clinical isolates recently isolated from the HIA-Laveran (see M&M section and S1 Table).

[5] = test system: human fibroblasts; assay: WST-1 cytotoxicity test, fibroblasts; assay type: cell-based
Procedure: (§3) CHO-K1 cells (ATCC-LGC Standards Sarl (Molsheim, France) and human fibroblasts (Clinisciences, Paris, France) were maintained in McCoy’s 5A and DMEM media, respectively, supplemented with 10% bovine calf serum, 2 mM glutamine, and 100 U/mL/10 μg/mL penicillin/streptomycin. They were incubated at 37°C in a humidified atmosphere containing 5% CO2. The cell lines were seeded in 96-well plates and incubated overnight. The cytotoxic effects of compounds were assessed by the colorimetric WST-1 cell proliferation assay as previously described. Briefly, a range of compound concentrations from 30 μM to 1200 μM was added to triplicate cultures, and cells were incubated at 37°C for 24 h. At the end of the incubation period, cultures were washed three times with phosphate buffer saline (PBS) and incubated in fresh culture medium containing 10% WST-1 for an additional 30 min. Cell viability was evaluated by measuring the WST-1 absorbance at 450 nm in a microplate spectrophotometer MRX1 II (Dynex technologies, Chantilly, VA, USA). The Inhibitory Concentration 50% (IC50) was chosen to evaluate the cytotoxicity of compounds. IC50 was defined as the concentration of a compound that induced a 50% decrease in viable cells. Doxorubicin was used as a positive control.

[6] = test system: CHO-K1 cells; assay: cells; assay type: cell-based, Chinese Hamster; details: for IC50: Cricetulus griseus, CHO-K1, WST1, 24 h, mean +/- SD, 2 independent experiments
Procedure: as §3

[7] = test system: P. aeruginosa PA01 (wt); assay: Antibiotic susceptibility testing (broth micro-dilution MIC), strain PA01; assay type: cell-based, Pseudomonas aeruginosa; details: Pseudomonas aeruginosa, read-out: Minimal Inhibitory Concentration
Procedure: as §1
(§4) The same experiment was performed using chloramphenicol (4 mg/L) in combination with 3 (10 μM final concentration). […] These experiments were performed to study the effect of our compounds on the natural resistance of P. aeruginosa. […] Experiments were performed with the ß-lactams ceftazidime and ticarcillin and ciprofloxacin and amikacin.

[8] = test system: P. aeruginosa PA01 ERY^R (Mex CD overproducer); assay: microbe, parasite or virus in culture; assay type: cell-based, Pseudomonas aeruginosa; details: Pseudomonas aeruginosa, read-out: Minimal Inhibitory Concentration
Procedure: as §1, §4

[9] = test system: P. aeruginosa CMZ091 (Mex XY overproducer); assay: Antibiotic susceptibility testing (broth micro-dilution MIC), strain CMZ091; assay type: cell-based, Pseudomonas aeruginosa; details: Pseudomonas aeruginosa, read-out: Minimal Inhibitory Concentration
Procedure: as §1, §2

[10] = test system: P. aeruginosa FB1 (Mex B deleted); assay: Antibiotic susceptibility testing (broth micro-dilution MIC), strain FB1; assay type: cell-based; details: Pseudomonas aeruginosa, read-out: Minimal Inhibitory Concentration
Procedure: as §1

[11] = test system: efflux of 1,2'-dinaphthylamine in strain PA01; assay: Real-time efflux assay (1,2'-dinaphthylamine, glucose-triggered); assay type: cell-based, Pseudomonas aeruginosa
Procedure: The experiments were performed as previously described with slight modifications. For each strain, 20 mL of MHII was inoculated with a single colony from a fresh plate and grown at 37°C to the stationary phase. […] They were then loaded over night with the dye 1,2’-dinaphthylamine (TCI-Europe SA, Zwijndrecht, Belgium) at a final concentration of 32 μM, in the presence of 5 μM CCCP. […] In a 96-well Greiner black microplate (Greiner, Courtaboeuf, France), a gradient of inhibitor (when used) was prepared in PPB, and bacteria were added (100 μL per well). The fluorescence of the cell suspension, was monitored each 22 sec during 1200 sec on an Infinite M200 microplate reader (Tecan; excitation wavelength 370 nm and emission wavelength 420 nm). In order to trigger the transport, glucose (50 mM final concentration) is added at 200 sec. The maximum efficacy of the efflux is the difference between the value obtained without and with glucose addition after 1200 sec. For each compound, the efficiency of efflux inhibition is calculated as the difference between the maximum efficacy of transport and the residual transport obtained at various concentrations of the compound.

[12] = test system: outer membrane of P. aeruginosa PA01; assay: Outer membrane permeation assay (nitrocefin hydrolysis); details: compound at 125μM, relative to 250 μM polymyxin-B
Procedure: An overnight culture of PA01 was diluted 100-fold into 10 ml MHII broth containing 0.01 μg/ml of imipenem to induce a higher level of β-lactamases. […] Absorbance at 490 nm was monitored by spectrophotometry using an Infinite M200 microplate reader (Tecan) over 60 min. Experiments were performed in triplicate.

[13] = test system: Enterobacteriaceae; assay: Same type of combination assay against Enterobacteriaceae (data not shown); assay type: cell-based

Compound	MIC [1]	MIC [2]	synergy with doxycycline in screening [3]	isolates with doxycycline susceptibility restored [4]	IC50 ([5]; Homo sapiens, Fibroblast, WST1, 24 h, mean +/- SD, 2 independent experiments)	cytotoxicity value compared with the positive control doxorubicin ([5]; human fibroblasts)	cytotoxicity value compared with the positive control doxorubicin ([6]; Chinese hamster, 24 h)	IC50 [6]	MIC [7]	MIC [8]	MIC [9]	MIC [10]	efflux inhibition ([11]; compound at 31.25μM)	efflux inhibition ([11]; compound at 125μM)	outer membrane permeation activity [12]	rank of potency against Enterobacteriaceae [13]
CC(C)=CCCC(C)=CCNCCCNCCCCNCCCN [Compound 1]	> 85 µg/mL and > 250 µM	85 µg/mL and 250 µM	did not show any significant synergy	27%	138 ± 18.6 µM	10 times	20 times	808 ± 68.1 µM	> 85 µg/mL and > 250 µM	> 85 µg/mL and > 250 µM	85 µg/mL and 250 µM	85 µg/mL and 250 µM	–	–	–	–
polymyxin-B nonapeptide [PMBN, reference compound]	–	–	–	–	–	–	–	–	–	–	–	–	quite inefficient	30%	10%	–
CC(C)=CCCC(C)=CCNCCCN(CCCN)CCCN [Compound 2]	> 81 µg/mL and > 250 µM	> 81 µg/mL and > 250 µM	–	6%	–	–	–	236 ± 28.9 µM	> 81 µg/mL and > 250 µM	> 81 µg/mL and > 250 µM	> 81 µg/mL and > 250 µM	> 81 µg/mL and > 250 µM	–	–	–	the most potent

From article PMC4859512, “Polyamino-Isoprenic Derivatives Block Intrinsic Resistance of P. aeruginosa to Doxycycline and Chloramphenicol In Vitro” (PLoS ONE, 2016)
